A short description of data set [1]: Oral administration to rats, plasma concentration and absorption ratio (Example 2, Table 2). The data set is classed as in vivo, SD-strain male rats. Particulars: rat, 20 mg/kg. How it is done: From this emulsion, a w/o/w type emulsion was prepared using a homogenizer in 0.5% PVA aqueous solution (1000 ml). Then, the emulsion was slowly stirred with a conventional propeller stirrer for 3 hours. After dichloromethane vaporized while w/o type microcapsules hardened, the microcapsules were centrifuged and collected and at the same time washed with purified water. The collected microcapsules were freeze-dried for a day to obtain powdery microcapsules.
The microcapsules were suspended in 0.5% methylcellulose, and orally administered to SD-strain male rats (body weight: 250 g) in a dose of 20 mg/kg. For comparative purposes, a suspension of the drug alone in 0.5% methylcellulose was also administered. In both cases, the plasma concentration of the drug and the absorption ratio were determined.

Data set [2] is described as follows: Oral administration to rats, plasma concentration and absorption ratio (Example 1, Table 1). The data set is classed as in vivo. Particulars: rat, SD-strain male rats, 20 mg/kg, suspended in 0.5% methylcellulose. As for the experimental part: The antiulcer drug 2-[[[3-methyl-4-(2,2,3,3,-tetrafluoropropoxy)-2-pyridyl]methyl]thio]benzimidazole (hereinafter sometimes referred to as Compound A) (400 mg) and lactic acid/glycollic acid copolymer (lactic acid/glycollic acid=50/50, average molecular weight calculated as polystyrene=5400) (3.6 g) were dissolved in dichloromethane (5 ml) to prepare an o/w type emulsion using a homogenizer in an aqueous solution (800 ml) of 0.1% polyvinyl alcohol (PVA). Then, the emulsion was slowly stirred with a conventional propeller stirrer. After dichloromethane vaporized and the microcapsules hardened, the microcapsules were collected by centrifugation and at the same time washed with purified water. The collected microcapsules were freeze-dried for a day to obtain powdery microcapsules.
The drug content in the total amount of the microcapsules was 10.0%, and the entrapment was 100%. The microcapsules were suspended in 0.5% methylcellulose, and orally administered to SD-strain male rats (body weight: 250 g) in a dose of 20 mg/kg. A suspension of the drug alone in 0.5% methylcellulose was also administered for comparison. In both cases, the plasma concentration of the drug and the absorption ratio were determined.

The nature of data set [3]: Solubility of Compound A at the pH in the small intestine (stated in words). The data set is classed as physicochemical.
For data set [4] the following is noted: pH no higher than 3; cited from earlier work.

The values below come from patent US6113941A, “Substained release microcapsule of physiologically active compound which is slightly water soluble at pH 6 to 8” (Takeda Chemical Industries, Ltd., priority 1994, dated 2000).

Broadly, the Cmax is the highest concentration seen after dosing. In general, Tmax refers to the time from dosing to the highest level. As to `Cc1c(OCC(F)(F)C(F)F)ccnc1CSc1nc2ccccc2[nH]1` [Compound A, 2-[[[3-methyl-4-(2,2,3,3,-tetrafluoropropoxy)-2-pyridyl]methyl]thio]benzimidazole], the Fa in data set [1] (in vivo) and in data set [2] (in vivo) was 5.4% in each case. The Cmax in data set [1] (plasma) amounted to 218 ng/mL; in data set [2] (plasma, read-out: Cmax (peak blood level)) it was 218 ng/mL. In addition, the Tmax in data set [1] (plasma) came out at 15 min; in data set [2] (plasma, read-out: Tmax (time required to obtain the peak blood level)), 15 min. Also, in data set [3], the solubility result is on record as “very low solubility”.
As to `COc1ccc2c(c1)c(CC(=O)O)c(C)n2C(=O)c1ccc(Cl)cc1` [indomethacin], in data set [4], the solubility in water entry is “not readily soluble”.
